Results taken from US7498406B2, “Substantially cell membrane impermeable compound and use thereof” (priority 1999, dated 2009).

Legend:
BAE cells = type: cell-based, bovine; details: up to 10 mM concentration (not shown)
HT1080 tumours = test: Tumour growth in mice, subcutaneous administration; type: in vivo, SCID mice; details: 10 mg per kg per day
Method: FIG. 25. Inhibition of human fibrosarcoma and murine Lewis lung tumour growth following systemic administration of GSAO. HT1080 or Lewis lung tumours were established in the proximal midline of female 7 to 9 week old SCID or C57Bl6/J mice, respectively. When the tumours were ˜0.1 cm^3 in volume the mice were randomised into two groups (n=5) and treated with either GSAA or GSAO at a dose of 10 mg per kg per day in 0.2 mL of PBS containing 100 mM glycine. The compounds were administered subcutaneously at a site distant from the tumour. Tumour volume and animal weight was measured every 3 days. The GSAO/GSAA HT1080 tumour volume ratio at day 17 of treatment was 0.29 (part A). The GSAO/GSAA Lewis lung tumour volume ratio at day 12 of treatment was 0.29 (part B). The data points and errors represent the mean and SE of the tumour volumes.
Female 7 to 9 week old SCID or C57Bl6/J mice were used (Massachusetts General Hospital, Boston, Mass.). Mice were held in groups of 3 to 5 at a 12 hour day and night cycle and were fed with animal chow and water ad libidum. […] The tumours were measured in two diameters and tumour volume was calculated using the relationship, tumour volume=a×b^2×0.52, where a is the longest and b the shortest diameters in cm. […] Tumour volume and animal weight was measured every 3 days. […]

[1] = Titration of cysteine with GSAO, DTNB assay; type: binding; details: cysteine 28 μM, GSAO 0-50 μM, 10 minutes
Method: FIG. 11. Titration of DMP or cysteine with GSAO. DMP (15 ? M corresponding to 30 μM thiols) or cysteine (28 μM) was incubated with GSAO (0-50 μM) for 10 minutes. DTNB (950 μM) was then added and the reactions incubated for a further 10 minutes. The concentration of thiol in the reactions was determined from the absorbance of the TNB dianion at 412 nm.
(§1) A stock solution of DMP (5 μL, 50 μmol) was dissolved in DMSO (995 μL), giving a concentration of 50 mM DMP, A second dilution of the 50 mM DMP stock solution (10 μL) in pH 7.0 buffer (0.1 M HEPES, 0.3 M NaCl, 1 mM EDTA) (990 μL) gave a working solution of 500 ? M DMP. The activity of the arsenical could then be determined by the titration of varying amounts of arsenical against the DMP working solution (10 μL) in a 96-well microtitre plate, with the total volume made up to 195 μL by addition of buffer. After a 10 minute incubation at room temperature, during which time the solutions were agitated on a plate shaker, 5 μL of a 37.9 mM stock solution of DTNB (15 mg) in DMSO (1 mL) was added, and the plate incubated with shaking for another 10 minutes. The absorbance at 412 nm due to the formation of the TNB dianion was measured using a Molecular Devices Thermomax Plus (Palo Alto, Calif.) microplate reader. The extinction coefficient for the TNB dianion at pH 7.0 is 14, 150 M^−1cm^−1 at 412 nm (Riddles et al., 1983).

[2] = Interaction of GSAO with synthetic, peptide and protein dithiols; type: binding; details: read-out: dissociation constants, range over the dithiols
Method: (§2) FIG. 12. Interaction of GSAO with synthetic, peptide and protein dithiols. DMP (A) (15 μM), 6,8-thioctic acid (B) ([…]), dithiothreitol (C) (8.5 μM), TrpCysGlyProCysLys (D) (4.6 μM), TrpCysGlyHisCysLys (E) (5.5 μM) or thioredoxin (F) (4.1 μM corresponding to 20.6 μM thiols) was incubated with GSAO (0-56 μM) for 10 minutes. DTNB (950 μM) was then added and the reactions incubated for a further 10 minutes. The concentration of thiol in the reactions was determined from the absorbance of the TNB dianion at 412 nm. The solid lines represent the best non-linear least squares fit of the data to Equation 1 (A to E) or Equation 2 (F) and have been drawn using the parameter estimates in Table 1. The dotted line in part A represents a simulated titration assuming an infinite affinity of GSAO for the dithiol. GSAO bound to both synthetic, peptide and protein dithiols with dissociation constants in the range 130 nM to 1.4 μM.
Binding of GSAO to dithiols was measured from loss of thiols using the DTNB assay described above. The dissociation constant, Kd, for GSAO binding to dithiols was determined by incubating increasing concentrations of GSAO, I, with a fixed dithiol concentration, [S]T, and measuring the remaining dithiol using DTNB. Note that the concentration of dithiol equals half the TNB concentration. […]

[3] = Binding of GSAO to dithiol, loss of thiols in DTNB assay; details: for Kd: errors are 1 SD, read-out: Dissociation Constant
Method: as §2, §1
Binding of GSAO to dithiols was measured from loss of thiols using the DTNB assay described above. The dissociation constant, Kd, for GSAO binding to dithiols was determined by incubating increasing concentrations of GSAO, I, with a fixed dithiol concentration, [S]T, and measuring the remaining dithiol using DTNB. Note that the concentration of dithiol equals half the TNB concentration. The concentration of dithiol.GSAO complex, SI, as a function of the total GSAO concentration, [I]T, is described by Equation 1 (Hogg and Jackson, 1990), [SI]=0.5.{([S]T+x.[I]T+Kd)−(([S]T+x.[I]T+Kd)^2−4.[S]T.x.[I]T)^0.5} (1)
where x is a factor that, when multiplied together with [I]T, will yield the active concentration of GSAO. […]

Compound	effect on BAE viability (BAE cells)	inhibition of the rate of fibrosarcoma tumour growth (HT1080 tumours; subcutaneous)	GSAO/GSAA HT1080 tumour volume ratio (HT1080 tumours; day 17 of treatment)	interaction with cysteine in DTNB titration [1]	Kd [2]	interaction with DMP in DTNB titration ([3]; DMP 15 μM, GSAO 0-50 μM, 10 minutes)	Kd ([3]; ring size 5)	Kd ([3]; ring size 6)	Kd ([3]; ring size 7)
N[C@@H](CCC(=O)N[C@@H](CSCC(=O)Nc1ccc([As](=O)(O)O)cc1)C(=O)NCC(=O)O)C(=O)O [GSAA, 4-(N-(S-glutathionylacetyl)amino)phenylarsonic acid, reference compound]	no significant effect								
NC(CCC(=O)NC(CSCC(=O)Nc1ccc([As]=O)cc1)C(=O)NCC(=O)O)C(=O)O (stereo not drawn) [GSAO, 4-(N-(S-glutathionylacetyl)amino)-phenylarsenoxide]		~70%	0.29	any interaction of GSAO with cysteine was displaced by DTNB	0.13 to 1.4 µM	bound to DMP and prevented interaction of the dithiol with DTNB	0.13 µM	0.2 ± 0.05 µM	0.42 µM
